What all share (assay type): cell-based
In test [1] the target is T1, α-Gal A mutant form P259Q (Homo sapiens, UniProt P06280, P259Q).
T1 construct: expressed in transfected cells; host or cells: HEK-293
T1 sequence (P06280 32-429 P259Q): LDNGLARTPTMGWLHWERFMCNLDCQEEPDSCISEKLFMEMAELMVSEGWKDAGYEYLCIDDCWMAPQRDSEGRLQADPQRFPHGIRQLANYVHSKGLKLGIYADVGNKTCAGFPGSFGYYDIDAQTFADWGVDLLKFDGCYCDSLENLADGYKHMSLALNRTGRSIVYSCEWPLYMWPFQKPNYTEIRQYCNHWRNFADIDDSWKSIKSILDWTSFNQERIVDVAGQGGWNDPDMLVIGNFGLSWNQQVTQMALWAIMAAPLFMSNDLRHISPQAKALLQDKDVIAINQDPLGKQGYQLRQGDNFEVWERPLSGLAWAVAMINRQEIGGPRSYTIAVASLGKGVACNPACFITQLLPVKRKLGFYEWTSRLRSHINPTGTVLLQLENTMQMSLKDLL
The experiment in a line: α-Gal A activity in lysates of transfected HEK-293 cells, P259Q. The protocol: (§1) Baseline and 10 μM migalastat α-Gal A activity: Differences in the α-Gal A activity between lysates incubated in the absence and presence of 10 μM migalastat were determined using a one-tailed, Mann Whitney U test; an increase at 10 μM migalastat with a p<0.05 was considered significant.
(§2) 10 μM migalastat α-Gal A activity (% WT)=(α-Gal A activity in mutant transfected cell lysates incubated with 10 μM migalastat÷α-Gal A activity in wild-type transfected cell lysates without migalastat)*100.
(§3) Absolute increase (% WT)=is the 10 μM migalastat α-Gal A activity (% WT) minus the baseline α-Gal A activity (% WT).
(§4) Relative increase is the 10 μM migalastat α-Gal A activity in mutant transfected cell lysates÷baseline α-Gal A activity in mutant transfected cell lysates incubated without migalastat.

For test [2], the target named is T2, α-Gal A mutant form R392T (Homo sapiens, UniProt P06280, R392T).
T2 construct: expressed in transfected cells; host or cells: HEK-293
T2 sequence (P06280 32-429 R392T): T1 sequence (P06280 32-429 P259Q) with Q228P, R361T
The experiment in a line: α-Gal A activity in lysates of transfected HEK-293 cells, R392T. On the procedure:
as §1, §2, §3, §4

The target in test [3] is T3, α-Gal A mutant form V339A (Homo sapiens, UniProt P06280, V339A).
T3 construct: expressed in transfected cells; host or cells: HEK-293
T3 sequence (P06280 32-429 V339A): T1 sequence (P06280 32-429 P259Q) with Q228P, V308A
In words: α-Gal A activity in lysates of transfected HEK-293 cells, V339A. On the procedure:
as §1, §2, §3, §4

The target in test [4] is T4, α-Gal A mutant form Q250K (Homo sapiens, UniProt P06280, Q250K).
T4 construct: expressed in transfected cells; host or cells: HEK-293
T4 sequence (P06280 32-429 Q250K): T1 sequence (P06280 32-429 P259Q) with Q219K, Q228P
The experiment in a line: α-Gal A activity in lysates of transfected HEK-293 cells, Q250K. On the procedure:
as §1, §2, §3, §4

In another test the target is T5, α-Gal A mutant form M96V (Homo sapiens, UniProt P06280, M96V).
T5 construct: expressed in transfected cells; host or cells: HEK-293
T5 sequence (P06280 32-429 M96V): T1 sequence (P06280 32-429 P259Q) with M65V, Q228P
In words: α-Gal A activity in lysates of transfected HEK-293 cells, M96V. The protocol: as §1, §2, §3, §4

Setting [5] is: 10 μM migalastat minus baseline.
[6] abbreviates: 10 μM migalastat ÷ baseline activity.
[7] abbreviates: HEK-293 lysates, 10 μM migalastat, 5 days, mean ± SEM.
[8] abbreviates: HEK-293 lysates, 10 nM migalastat as printed, 5 days, mean ± SEM.

Where a chain is given by its changes, count along the chain named.

Regarding `OC[C@H]1NC[C@H](O)[C@@H](O)[C@H]1O` [migalastat, (2R,3S,4R,5S)-2-(hydroxymethyl) piperdine-3,4,5-triol], the “Absolute increase (% WT)” value in test [1] (setting [5]) is 36.1 % WT; in test [2] (setting [5]), 21.3 % WT; in test [3] (setting [5]), 16.8 % WT; in test [4] (setting [5]), 25.5 % WT; at α-Gal A mutant form M96V (setting [5]) it was 24.2 % WT. For the same molecule, the Relative increase in test [1] (setting [6]) was 1.90; in test [2] (setting [6]), 1.22; in test [3] (setting [6]), 1.33; in test [4] (setting [6]), 2.58; on α-Gal A mutant form M96V (setting [6]) it was 2.68. Moreover, the “10 μM migalastat α-Gal A activity” value in test [1] (setting [7]) stood at 25935 ± 2020 nmol/mg/h; in test [3] (setting [7]), 25174 ± 2895 nmol/mg/h; on α-Gal A mutant form M96V (setting [7]), 14612 ± 1009 nmol/mg/h. In addition, the “10 μM migalastat α-Gal A activity (% WT)” value was found to be 73.6 ± 5.0 % WT in test [1] (setting [7]); 125.9 ± 6.2 % WT in test [2] (setting [7]); 65.6 ± 4.2 % WT in test [3] (setting [7]); 41.6 ± 3.1 % WT in test [4] (setting [7]); 38.1 ± 2.4 % WT at α-Gal A mutant form M96V (setting [7]). The “10 nM migalastat α-Gal A activity” value worked out at 36679 ± 1896 nmol/mg/h in test [2] (setting [8]) and 11325 ± 1111 nmol/mg/h in test [4] (setting [8]).

The values are drawn from patent publication US12594268B2, “Methods of treating Fabry disease in patients having a mutation in the GLA gene” (Amicus Therapeutics, Inc., priority 2018, dated 2026).
